The values that follow come from patent US11191717B2, “Topical therapy for the treatment of skin malignancies using nanoparticles of taxanes” (DFB SORIA, LLC, priority 2017, dated 2021).

Read-outs that look alike come from different tables or passages of the source.

Data set [1] can be described thus: Particle size analysis of paclitaxel nanoparticles lots (ACCUSIZER 780). Format: physicochemical. The conditions noted are these: nanoparticle API in 0.1% w/w SDS solution. On the procedure: Instrument parameters: Max. Concentration: 9000 particles/mL, No. containers: 1, Sensor Range: Summation, Lower Detection Limit: 0.5 μm, Flow Rate: 30 mL/min, No. Analysis pulls: 4, Time between pulls: 1 sec, Pull volume: 10 mL, Tare Volume: 1 mL, Prime volume: 1 mL, Include First Pull: Not Selected.
Vortexed for 5-10 minutes and sonicated in a water batch for 1 minute.
Method: Filled a plastic bottle with filtered (0.22 μm) 0.1% w/w SDS solution and analyzed the Background.

The subject of data set [2] is intact human cadaver skin. In words: In vitro skin penetration diffusion study (Franz diffusion cell). Format: in vitro ADME. The conditions noted are these: results in Table 14 (formulas F1 through F13). As for the experimental part:
The skin was centered and the edges flattened out. […] Additional receptor fluid was added where necessary.
Cells were left uncapped during the experiment.

The conditions of data set [3]: methanol/water 15/85 (v/v), 37° C., pH 7, 75 rpm, cited from earlier work.
Data set [4] is described as follows: Observations of paclitaxel nanoparticle crystals in various substances and solutions of substances (light microscopy). The format is physicochemical.

As to `CC(=O)O[C@H]1C(=O)[C@@]2(C)[C@H]([C@H](OC(=O)c3ccccc3)[C@]3(O)C[C@H](OC(=O)[C@H](O)[C@@H](NC(=O)c4ccccc4)c4ccccc4)C(C)=C1C3(C)C)[C@]1(OC(C)=O)CO[C@@H]1C[C@@H]2O` [Paclitaxel nanoparticles lot used in formulas listed in Tabl] [listing 1 of 2 here], in data set [1], the “Particle size, Mean (number-weighted differential distribution)” value stood at 0.861 μm; the “Particle size, Median (number-weighted differential distribution)” value stood at 0.710 μm; the “Particle size, Mode (number-weighted differential distribution)” value is recorded as 0.572 μm.
For the compound `CC(=O)O[C@H]1C(=O)[C@@]2(C)[C@H]([C@H](OC(=O)c3ccccc3)[C@]3(O)C[C@H](OC(=O)[C@H](O)[C@@H](NC(=O)c4ccccc4)c4ccccc4)C(C)=C1C3(C)C)[C@]1(OC(C)=O)CO[C@@H]1C[C@@H]2O` [Paclitaxel nanoparticles lot used in formulas listed in Tabl] [listing 2 of 2 here], the “Particle size, Mean (number-weighted differential distribution)” value in data set [1] was found to be 0.83 μm.
As to `CC(=O)O[C@H]1C(=O)[C@@]2(C)[C@H]([C@H](OC(=O)c3ccccc3)[C@]3(O)C[C@H](OC(=O)[C@H](O)[C@@H](NC(=O)c4ccccc4)c4ccccc4)C(C)=C1C3(C)C)[C@]1(OC(C)=O)CO[C@@H]1C[C@@H]2O` [Paclitaxel, paclitaxel], the “transdermal flux of the paclitaxel through the skin (epidermis and dermis)” value in data set [2] is “less than 0.01 μg/cm^2”.
In the case of `CC(=O)O[C@@]12CO[C@@H]1C[C@H](O)[C@@]1(C)C(=O)[C@H](O)C3=C(C)[C@@H](OC(=O)[C@H](O)[C@@H](NC(=O)OC(C)(C)C)c4ccccc4)C[C@@](O)([C@@H](OC(=O)c4ccccc4)[C@H]21)C3(C)C` [docetaxel nanoparticles, docetaxel], the “dissolution rate, dissolved in 30 minutes” value was 9% in data set [3] (made by milling) and 27% in data set [3] (made by the supercritical carbon dioxide method).
For the compound `CC(=O)O[C@H]1C(=O)[C@@]2(C)[C@H]([C@H](OC(=O)c3ccccc3)[C@]3(O)C[C@H](OC(=O)[C@H](O)[C@@H](NC(=O)c4ccccc4)c4ccccc4)C(C)=C1C3(C)C)[C@]1(OC(C)=O)CO[C@@H]1C[C@@H]2O` [Paclitaxel nanoparticles, paclitaxel], the “Visual observation by light microscopy- Needle shaped crystals observed?” value (shortened to “Visual observation”) in data set [4] (in Aluminum sulfate 0.1-0.2% in water, @ 7 days, RT) is on record as “Yes, >5 μm, @”; in data set [4] (in Ammonium lauryl sulfate 2% in water, @ 3 days, RT), “Yes, >5 μm @”; in data set [4] (in Benzalkonium chloride (50%) 2% in water, @ 7 days & 21 days, RT), “No, <5 μm @”; in data set [4] (in CARBOPOL ULTREZ 10 (with Ammonium hydroxide as neutralizer) 0.5% in water, @ 8 days & 21 days, RT), “No, <5 μm, @ 8”; in data set [4] (in Castor Oil 100%, @ 24 hrs & 9 days, RT), “No, <5 μm @ 24”; in data set [4] (in Dimethicone, 1000 cSt 100%, @ 24 hrs & 6 days, RT), “No, <5 μm @ 24”. Also, the “Visual observation” value in data set [4] (in FOMBLIN HC04 100%, @ 4, 7 & 13 days, RT) is given as “No, <5 μm @ 4,”; in data set [4] (in Hydroxyethyl cellulose 1% in water, @ 7 days, RT), “Yes, >5 μm, @”; in data set [4] (in Hydroxypropyl methylcellulose 1% in water, @ 3 days, RT), “Yes, >5 μm @”; in data set [4] (in Lecithin 1% in water, @ 24 hrs, RT), “Yes, >10 μm, @”; in data set [4] (in Light Mineral Oil NF 100%, @ 3 days, RT & 40 C.), “No, <5 μm @ 3”; in data set [4] (in Magnesium nitrate 5% in water, @ 3 days, RT), “Yes, >5 μm @”. Also, the “Visual observation” value is given as “Yes, >5 μm, @” in data set [4] (in Mannitol 5% in water, @ 7 days, RT); “No, <5 μm @ 3” in data set [4] (in Mineral Oil USP (heavy) 100%, @ 3 days, RT & 40 C.); “Yes, >5 μm @ 22” in data set [4] (in PEG 400 10% in water, @ 22 days, RT & 60 C.); “Yes, >5 μm @ 7” in data set [4] (in Poloxamer 188 2% in water, @ 7 days, RT); “No, <5 μm @” in data set [4] (in Poloxamer 407 2% in water, @ 5 & 7 days, RT); “Yes, <5 μm @ 6” in data set [4] (in Polyoxyl 40 Hydrogenated Castor Oil (KOLLIPHOR RH40) 1% in water, @ 6 days, RT). For the same compound, the “Visual observation” value is “Yes, >5 μm @” in data set [4] (in Polysorbate 80 0.5% in Saline, @ 7 days, RT & 60 C.); “Yes, <5 μm @ 22” in data set [4] (in Polysorbate 80 0.5% in water, @ 22 days, RT & 60 C.); “Yes, <5 μm @ 7” in data set [4] (in Povidone 1% in water, @ 7 days & 21 days, RT); “Yes, >5 μm, @” in data set [4] (in Proline 3% in water, @ 7 days, RT); “Yes, >5 μm, @ 5” in data set [4] (in Purified Water 100%, @ 5 days, RT & 60 C.); “No, <5 μm @ 24” in data set [4] (in ST-Cyclomethicone 5 NF 100%, @ 24 hrs & 13 days, RT). Moreover, the “Visual observation” value in data set [4] (in Saline 0.9% NaCl in water, @ 7 days, RT & 60 C.) is reported as “Yes, >10 μm, @”; in data set [4] (in Sodium lauryl sulfate 2% in water, @ 7 days, RT), “Yes, >5 μm, @”; in data set [4] (in Sodium phosphate monobasic 0.75% in water, @ 7 days, RT), “Yes, >5 μm, @”; in data set [4] (in Sorbitol 5% in water, @ 7 days, RT), “Yes, >5 μm, @”; in data set [4] (in Vitamin E TPGS 0.5% in water, @ 6 days, RT) it was “Yes, <5 μm @ 6”; in data set [4] (in Zinc acetate […] in water, @ 7 days, RT), “Yes, >5 μm, @”.
